Source: article PMC11033320, “Activation of p53 signaling and regression of breast and prostate carcinoma cells by spirooxindole-benzimidazole small molecules” (Frontiers in Pharmacology, 2024)

Columns and labels:
PC-3 cells = assay: MTT assay anticancer activity, PC-3; type: cell-based; conditions: Homo sapiens, PC-3, 5 µM, mean ± SEM, read-out: growth inhibition percentage of PC-3
Description: MTT method was done as described above.

786-0 = assay: NCI anticancer screening, Renal Cancer 786-0; type: cell-based; conditions: Homo sapiens; 786-0, 10 μM; read-out: % Growth Inhibition (GI %)
Description: (§1) The compound has been processed according to standard method NCI-60 Human Tumor Cell Lines Screen for organic compound at development therapeutic program (DTP). Requests for access to this national resource can be submitted online at: […]

UACC-257 = assay: NCI anticancer screening, Melanoma UACC-257; type: cell-based; conditions: Homo sapiens; UACC-257, 10 μM; read-out: % Growth Inhibition (GI %)
Description: as §1

A549/ATCC = assay: NCI anticancer screening, Non-Small Cell Lung Cancer A549/ATCC; type: cell-based; conditions: Homo sapiens, read-out: % Growth Inhibition (GI %)
Description: as §1

COLO 205 = assay: NCI anticancer screening, Colon Cancer COLO 205; type: cell-based; conditions: Homo sapiens; COLO 205, 10 μM; read-out: % Growth Inhibition (GI %)
Description: as §1

HOP-62 = assay: NCI anticancer screening, Non-Small Cell Lung Cancer HOP-62; type: cell-based; conditions: Homo sapiens; HOP-62, 10 μM; read-out: % Growth Inhibition (GI %)
Description: as §1

NCI-H522 = assay: NCI anticancer screening, Non-Small Cell Lung Cancer NCI-H522; type: cell-based; conditions: Homo sapiens; NCI-H522, 10 μM; read-out: % Growth Inhibition (GI %)
Description: as §1

OVCAR-3 = assay: NCI anticancer screening, Ovarian Cancer OVCAR-3; type: cell-based; conditions: Homo sapiens; OVCAR-3, 10 μM; read-out: % Growth Inhibition (GI %)
Description: as §1

ACHN = assay: NCI anticancer screening, Renal Cancer ACHN; type: cell-based; conditions: Homo sapiens, read-out: % Growth Inhibition (GI %)
Description: as §1

DU-145 = assay: NCI anticancer screening, DU-145; type: cell-based; conditions: Homo sapiens; DU-145, 10 μM; read-out: % Growth Inhibition (GI %)
Description: as §1

RXF 393 = assay: NCI anticancer screening, Renal Cancer RXF 393; type: cell-based; conditions: Homo sapiens; RXF 393, 10 μM; read-out: % Growth Inhibition (GI %)
Description: as §1

MALME-3M = assay: NCI anticancer screening, Melanoma MALME-3M; type: cell-based; conditions: Homo sapiens, read-out: % Growth Inhibition (GI %)
Description: as §1

SK-OV-3 = assay: NCI anticancer screening, Ovarian Cancer SK-OV-3; type: cell-based; conditions: Homo sapiens; SK-OV-3, 10 μM; read-out: % Growth Inhibition (GI %)
Description: as §1

HT29 = assay: NCI anticancer screening, Colon Cancer HT29; type: cell-based; conditions: Homo sapiens, HT-29; HT29, 10 μM; read-out: % Growth Inhibition (GI %)
Description: as §1

CAKI-1 = assay: NCI anticancer screening, Renal Cancer CAKI-1; type: cell-based; conditions: Homo sapiens; CAKI-1, 10 μM; read-out: % Growth Inhibition (GI %)
Description: as §1

A498 = assay: NCI anticancer screening, Renal Cancer A498; type: cell-based; conditions: Homo sapiens; A498, 10 μM; read-out: % Growth Inhibition (GI %)
Description: as §1

IGROV1 = assay: NCI anticancer screening, Ovarian Cancer IGROV1; type: cell-based; conditions: Homo sapiens, IGROV-1; IGROV1, 10 μM; read-out: % Growth Inhibition (GI %)
Description: as §1

MOLT-4 = assay: NCI anticancer screening, Leukemia MOLT-4; type: cell-based; conditions: Homo sapiens; MOLT-4, 10 μM; read-out: % Growth Inhibition (GI %)
Description: as §1

HL-60(TB) = assay: NCI anticancer screening, Leukemia HL-60(TB); type: cell-based; conditions: Homo sapiens, read-out: % Growth Inhibition (GI %)
Description: as §1

RPMI-8226 = assay: NCI anticancer screening, Leukemia RPMI-8226; type: cell-based; conditions: Homo sapiens; RPMI-8226, 10 μM; read-out: % Growth Inhibition (GI %)
Description: as §1

[1] = MTT cytotoxicity to normal human lung fibroblast Wi-38 cell line; type: cell-based; conditions: Wi-38 normal lung fibroblast cells, mean ± SEM, read-out: percentage of Wi-38 viability
Description: Normal human lung fibroblast Wi-38 cell line was used to detect cytotoxicity of the studied compounds (Table S8). Wi-38 cell line was cultured in DMEM medium-contained 10% fetal bovine serum (FBS), seeded as 5x10^3 cells per well in 96-well cell culture plate and incubated at 37 °C in 5% CO2 incubator. After 24 h for cell attachment, serial concentrations of the synthetic compounds were incubated with Wi-38 cells for 72 h. Cell viability was assayed by MTT method (Mosmann, 1983). Twenty microliters of 5 mg/ml MTT (Sigma, USA) was added to each well and the plate was incubated at 37 °C for 3 h. Then MTT solution was removed, 100 µl DMSO was added and the absorbance of each well was measured with a microplate reader (BMG LabTech, Germany) at 570 nm.

UACC-62 = assay: NCI anticancer screening, Melanoma UACC-62; type: cell-based; conditions: Homo sapiens; UACC-62, 10 μM; read-out: % Growth Inhibition (GI %)
Description: as §1

HCC-2998 = assay: NCI anticancer screening, Colon Cancer HCC-2998; type: cell-based; conditions: Homo sapiens; HCC-2998, 10 μM; read-out: % Growth Inhibition (GI %)
Description: as §1

SK-MEL-28 = assay: NCI anticancer screening, Melanoma SK-MEL-28; type: cell-based; conditions: Homo sapiens; SK-MEL-28, 10 μM; read-out: % Growth Inhibition (GI %)
Description: as §1

NCI-H226 = assay: NCI anticancer screening, Non-Small Cell Lung Cancer NCI-H226; type: cell-based; conditions: Homo sapiens; NCI-H226, 10 μM; read-out: % Growth Inhibition (GI %)
Description: as §1

[2] = system: leukemia cells (CCRF-CEM; HL-60 (TB); K-562; MOLT-4; RPMI-8226, SR); assay: NCI anticancer screening, leukemia subpanel; type: cell-based, human; conditions: smaller GI% than the other compounds
Description: as §1

[3] = target: T1, Mdm2 (residues 1–118 T47W) (Homo sapiens, UniProt Q00987, T47W); assay: MDM2 binding by microscale thermophoresis (MST)
T1 construct: Mdm2 (residues 1–118 T47W; 500 nM)
T1 sequence (Q00987 1-118 T47W): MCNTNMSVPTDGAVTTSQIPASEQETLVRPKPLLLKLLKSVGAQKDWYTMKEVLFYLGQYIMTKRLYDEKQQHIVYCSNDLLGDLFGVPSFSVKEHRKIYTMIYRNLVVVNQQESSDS
Description: MST is a complementary biophysical assay to assess the binding of a small molecule to its receptor. […] Experiments were performed in 50 mM phosphate buffer at pH 7.4 containing 150 mM NaCl, 5 mM DTT, and 5% DMSO. […] Kd values and uncertainties were calculated using the MO Affinity Analysis software.

SMILES | inhibition at 5 µM (PC-3 cells) | inhibition at 10 µM (786-0) | inhibition at 10 µM (UACC-257) | inhibition at 10 µM (A549/ATCC) | inhibition at 10 µM (HOP-62) | inhibition at 10 µM (NCI-H522) | inhibition at 10 µM (OVCAR-3) | inhibition at 10 µM (ACHN) | inhibition at 10 µM (DU-145) | inhibition at 10 µM (RXF 393) | inhibition at 10 µM (MALME-3M) | inhibition at 10 µM (HT29) | inhibition at 10 µM (CAKI-1) | inhibition at 10 µM (IGROV1) | inhibition at 10 µM (MOLT-4) | inhibition at 10 µM (HL-60(TB)) | inhibition at 10 µM (RPMI-8226) | viability at 72 h, 5 µM [1] | inhibition at 10 µM (UACC-62) | inhibition at 10 µM (HCC-2998) | further results
COc1cc([C@@H]2C3CSCN3[C@]3(C(=O)Nc4ccccc43)[C@H]2C(=O)c2nc3ccccc3[nH]2)cc(OC)c1OC (stereo partly drawn) [Compound 6i, (3S,6′R)-6'-(1H-Benzo [d]imidazole-2-carbonyl)-7'-(3,4,5-trimethoxyphenyl)-3′,6′,7′,7a′-tetrahydro-1′H-spiro [indoline-3.5′-pyrrolo [1,2-c]thiazol]-2-one] | 49.8 ± 3.12% | 99.4% | 87.8% | 89.4% | 104% | 88.3% | 109% | 107% | 111% | 109% | 99.8% | 107% | 92.6% | 95.8% | 97.4% | 103% | 108% | 43.3 ± 0.917% | 87.4% | 108% | inhibition at 10 µM (COLO 205): 114%; inhibition at 10 µM (SK-OV-3): 102%; inhibition at 10 µM (A498): 81.7%; inhibition at 10 µM (SK-MEL-28): 107%
O=C(c1nc2ccccc2[nH]1)[C@H]1[C@H](c2ccc(Cl)cc2)C2CSCN2[C@]12C(=O)Nc1ccccc12 (stereo partly drawn) [Compound 6b, (3S,6′R)-6'-(1H-Benzo [d]imidazole-2-carbonyl)-7'-(4-chlorophenyl)-3′,6′,7′,7a′-tetrahydro-1′H-spiro [indoline-3.5′-pyrrolo [1,2-c]thiazol]-2-one] | 51.9% | 97.6% | 95.2% | 81.4% | 91.7% | 87.9% | 86.4% | 78.2% | 97.4% | 71.1% | 89.7% | 80.9% | 68.3% | 68.9% | 68.9% | 98.3% | 63.2% | 49.6 ± 1.19% | 73.9% | 92.1% | inhibition at 10 µM (NCI-H226): 74%; GI% for MOLT-4, RPMI-8226, and SR cancer cells [2]: 75%; inhibition at 10 µM (SK-MEL-28): 92.2%
O=C(c1nc2ccccc2[nH]1)[C@H]1[C@H](c2ccc(Cl)cc2Cl)C2CSCN2[C@]12C(=O)Nc1ccccc12 (stereo partly drawn) [Compound 6g, (3S,6′R)-6'-(1H-Benzo [d]imidazole-2-carbonyl)-7'-(2,4-dichlorophenyl)-3′,6′,7′,7a′-tetrahydro-1′H-spiro [indoline-3.5′-pyrrolo [1,2-c]thiazol]-2-one] | 54.5 ± 1.56% | 85.9% | 74.4% | 62% | 80.3% | 71.7% | 69.7% | 63.7% | 86.9% | 40.7% | 86.2% | 61.9% | 36.9% | 54.8% | 43% | 80.7% | 42.5% | 40 ± 1.1% | 57% | 70.3% | inhibition at 10 µM (NCI-H226): 61.8%; GI% for MOLT-4, RPMI-8226, and SR cancer cells [2]: 75%; inhibition at 10 µM (SK-MEL-28): 78.3%
O=C(c1nc2ccccc2[nH]1)[C@H]1[C@H](c2ccc(F)cc2)C2CSCN2[C@]12C(=O)Nc1ccccc12 (stereo partly drawn) [Compound 6f, (3S,6′R)-6'-(1H-Benzo [d]imidazole-2-carbonyl)-7'-(4-fluorophenyl)-3′,6′,7′,7a′-tetrahydro-1′H-spiro [indoline-3.5′-pyrrolo [1,2-c]thiazol]-2-one] | 46 ± 0.833% | 99% | 83.9% | 78.6% | 104% | 79.5% | 101% | 94.2% | 111% | 99.6% | 94.2% | 85.7% | 90% | 93.2% | 83.6% | 93.1% | 87.8% | 47.39 ± 0.092% | 78.1% | 97% | inhibition at 10 µM (COLO 205): 109%; inhibition at 10 µM (SK-OV-3): 102%; inhibition at 10 µM (A498): 57.2%; inhibition at 10 µM (SK-MEL-28): 102%
O=C(c1nc2ccccc2[nH]1)[C@H]1[C@H](c2ccc(Br)cc2)C2CSCN2[C@]12C(=O)Nc1ccccc12 (stereo partly drawn) [Compound 6l, (3S,6′R)-6'-(1H-Benzo [d]imidazole-2-carbonyl)-7'-(4-bromophenyl)-3′,6′,7′,7a′-tetrahydro-1′H-spiro [indoline-3.5′-pyrrolo [1,2-c]thiazol]-2-one] | 55.1 ± 1.98% | 91.5% | 77.9% | 73% | 88.7% | 91.2% | 79.8% | 74.6% | 97.1% | 62.1% | 78.5% | 80.2% | 60.3% | 63.6% | 56.3% | 89.9% | 61.3% | 37.4 ± 2.02% | 70.5% | 79.4% | inhibition at 10 µM (NCI-H226): 74.8%; GI% for MOLT-4, RPMI-8226, and SR cancer cells [2]: 75%; Kd [3]: 49.9 µM; inhibition at 10 µM (SK-MEL-28): 84.8%
